Results on nine molecules are retold here after publication PMC9926234, “Iterative computational design and crystallographic screening identifies potent inhibitors targeting the Nsp3 macrodomain of SARS-CoV-2” (Proceedings of the National Academy of Sciences of the …, 2023).

Common to all, as to format: binding
The target in test [1] is T1, SARS-CoV-2 NSP3 Mac1 (Severe acute respiratory syndrome coronavirus 2, UniProt P0DTD1). The test is described as follows: biochemical. To be noted: for Ki: read-out: Ki***; for IC50: read-out: IC50.
Test [2] addresses T1, SARS-CoV-2 NSP3 Mac1. To be noted: for Refined occupancy: ligand occupancy after refinement (phenix.refine).
The target in test [3] is T1, SARS-CoV-2 NSP3 Mac1. Set-up: contains a conserved macrodomain enzyme (Mac1). An outline of the steps: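 ΔTma values are thermal shifts relative to a co-located DMSO-only control, read with 5 µM Fluorescent Yellow dye. Each compound was tested in triplicate over seven concentrations (two-fold steps, top 1,000 or 100 μM). Spearman correlation of concentration versus ΔTma tested whether the shift was dose-responsive.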

[4] abbreviates: Ki estimation from HTRF-derived IC50, Cheng-Prusoff, peptide 400nM, Kd 2.68µM.
Where [5] appears, read: PanDDA event map, 1 minus background density correction, crystal soaking of Mac1.
Setting [6] is: true hit = binding in crystallographic soaking or the HTRF-based binding assay.
Setting [7] is: HTRF ADPr-peptide displacement from SARS-CoV-2 Mac1.
[8] abbreviates: PanDDA 1-BDC of the event, compound stock 100 mM, Echo dispense volume 40 nl.
[9] abbreviates: PanDDA event map 1-BDC, crystal soak, Compound_concentration 100 mM, PanDDA run dmso_34 or nohits_35 per dataset.
Where [10] appears, read: crystal soak, Compound_concentration 100 mM, Echo dispense 40 nl, PanDDA run dmso_34 or nohits_35 per dataset.
[11] abbreviates: crystal soak, compound stock 100 mM, Echo dispense volume 40 nl.
[12] abbreviates: ligand modeled in structure, compound stock 100 mM, Echo dispense volume 40 nl.
Where [13] appears, read: PanDDA 1-BDC of the event, compound stock 100 mM, Echo dispense volume 80 nl.
[14] abbreviates: crystal soak, compound stock 100 mM, Echo dispense volume 80 nl.

Where two headings read alike, the source gives them in different places.

Regarding `O=C(NC1c2cccc(O)c2CC1C(=O)O)c1cnc2c(c1)CCCN2` (stereo not shown) [8539_0006], the Ki (commonly a measure of affinity in units of concentration, obtained from inhibition or displacement) on SARS-CoV-2 NSP3 Mac1 [1] (setting [4]) was 146 µM. Further, the 1-BDC was 0.1 at SARS-CoV-2 NSP3 Mac1 [2] (PanDDA 1-BDC value of the event, crystal soak, compound concentration 100 mM, per dataset) and 0.1 at SARS-CoV-2 NSP3 Mac1 [2] (setting [5]). In addition, on SARS-CoV-2 NSP3 Mac1 [2] (crystal soak, compound concentration 100 mM, per dataset), the “PanDDA hit?” value is given as “TRUE”. Moreover, at SARS-CoV-2 NSP3 Mac1 [2] (ligand modeled in the crystal structure, crystal soak, compound concentration 100 mM, per dataset), the “Modeled?” value is reported as “TRUE”. For the same molecule, the Refined occupancy on SARS-CoV-2 NSP3 Mac1 [2] (crystal soaking of Mac1) is reported as 20. Further, the “HIT*” value on SARS-CoV-2 NSP3 Mac1 [2] (setting [6]) is on record as “Y”. Also, at SARS-CoV-2 NSP3 Mac1 [3] (DSF dose responsiveness, 1 µM nsp3 mac1, adj p given), the “Spearman est (compound concentration vs apparent Tm)” value is listed as −0.43. The “DSF max dTma” value at SARS-CoV-2 NSP3 Mac1 [3] (maximal thermal upshift) is 0 ˚C.
As to `O=C(O)C[C@@H]1CN(c2ncnc3[nH]c4cc(F)ccc4c23)C[C@H](CO)O1` [LL114_0001], the IC50 – broadly, the midpoint of a concentration-inhibition curve – worked out at 8 µM on SARS-CoV-2 NSP3 Mac1 [1] (setting [7]) and 8.2 µM on SARS-CoV-2 NSP3 Mac1 [1] (HTRF). The Ki on SARS-CoV-2 NSP3 Mac1 [1] (setting [4]) is 7.1 µM. The 1-BDC at SARS-CoV-2 NSP3 Mac1 [2] (setting [8]) came to 0.12; on SARS-CoV-2 NSP3 Mac1 [2] (setting [9]), 0.14. The “1-BDC (PanDDA)” value on SARS-CoV-2 NSP3 Mac1 [2] (setting [5]) was found to be 0.12. Also, the “PanDDA hit?” value at SARS-CoV-2 NSP3 Mac1 [2] (setting [10]) and on SARS-CoV-2 NSP3 Mac1 [2] (setting [11]) was “TRUE” in each case. Besides, the “Modeled?” value on SARS-CoV-2 NSP3 Mac1 [2] (setting [12]) is “TRUE”. Moreover, the Refined occupancy on SARS-CoV-2 NSP3 Mac1 [2] (crystal soaking of Mac1) came out at 24. In addition, the “HIT*” value at SARS-CoV-2 NSP3 Mac1 [2] (setting [6]) was “Y”.
On to `O=C(O)CC1CCN(c2ncnc3[nH]c4ccccc4c23)CCC1(F)F` (stereo not shown) [Z6423], for which the IC50 at SARS-CoV-2 NSP3 Mac1 [1] (HTRF) amounted to 143 µM. Further, at SARS-CoV-2 NSP3 Mac1 [1] (setting [4]), the Ki is 124 µM. The “HIT*” value at SARS-CoV-2 NSP3 Mac1 [2] (setting [6]) is “Y”.
In the case of `Nc1ccc(C(=O)OC2c3ccccc3CC2C(=O)O)c(O)c1` (stereo not shown) [Z8507], the IC50 on SARS-CoV-2 NSP3 Mac1 [1] (setting [7]) is 144 µM. Further, the Ki on SARS-CoV-2 NSP3 Mac1 [1] is 125 µM. At SARS-CoV-2 NSP3 Mac1 [2] (PanDDA event map background density correction, crystal soak, compound concentration 100 mM), this molecule showed a 1-BDC of 0.37. In addition, on SARS-CoV-2 NSP3 Mac1 [2] (setting [5]), the “1-BDC (PanDDA)” value came to 0.37. Further, the “Modeled?” value on SARS-CoV-2 NSP3 Mac1 [2] (ligand modeled in the crystal structure, crystal soak, compound concentration 100 mM) is given as “TRUE”. This molecule displayed a Refined occupancy on SARS-CoV-2 NSP3 Mac1 [2] (crystal soaking of Mac1) of 74. Further, at SARS-CoV-2 NSP3 Mac1 [2] (overall hit call: binding in crystallographic soaking or the HTRF-based binding assay), the “HIT*” value is on record as “Y”.
Take `CNC(=O)Nc1ccc(C(=O)NC2c3cccc(O)c3CC2C(=O)O)cc1` (stereo not shown) [Z8539_0077]: at SARS-CoV-2 NSP3 Mac1 [1], the “binding to Mac1 in the HTRF assay, result in words” value is reported as “did not substantially change binding affinity”. Also, on SARS-CoV-2 NSP3 Mac1 [1] (HTRF), the IC50 turned out to be 1 µM. The Ki at SARS-CoV-2 NSP3 Mac1 [1] (setting [4]) was 0.9 µM. Moreover, the values for the 1-BDC at SARS-CoV-2 NSP3 Mac1 [2] (setting [9]) and at SARS-CoV-2 NSP3 Mac1 [2] (setting [5]) were 0.25 and 0.2, respectively. Besides, the “PanDDA hit?” value at SARS-CoV-2 NSP3 Mac1 [2] (setting [10]) is listed as “TRUE”. Besides, the “Modeled?” value at SARS-CoV-2 NSP3 Mac1 [2] (ligand modeled from this dataset, compound concentration 100 mM) is listed as “TRUE”. At SARS-CoV-2 NSP3 Mac1 [2] (crystal soaking of Mac1), this molecule yielded a Refined occupancy of 40. For the same molecule, the “HIT*” value at SARS-CoV-2 NSP3 Mac1 [2] (setting [6]) is recorded as “Y”.
For the molecule `CC1(C)CN(c2ncnc3[nH]c4ccccc4c23)CC(CC(=O)O)O1` (stereo not shown) [Z2215], the IC50 on SARS-CoV-2 NSP3 Mac1 [1] (HTRF) is 116 µM. Further, the Ki on SARS-CoV-2 NSP3 Mac1 [1] (setting [4]) is 101 µM. On SARS-CoV-2 NSP3 Mac1 [2] (setting [6]), the “HIT*” value is recorded as “Y”.
For the molecule `O=C(Nc1ccc(C(=O)NC2c3cccc(O)c3CC2C(=O)O)cn1)NC1CC1` (stereo not shown) [Z8539_0054], the IC50 on SARS-CoV-2 NSP3 Mac1 [1] (HTRF) was found to be 16 µM. Further, at SARS-CoV-2 NSP3 Mac1 [1] (setting [4]), the Ki is 13.9 µM. Moreover, the “HIT*” value on SARS-CoV-2 NSP3 Mac1 [2] (setting [6]) is reported as “Y”.
For `O=C(O)C1(F)CN(c2ncnc3[nH]c4cc(Br)ccc4c23)CC12CCC2` (stereo not shown) [LL123_0006], the IC50 on SARS-CoV-2 NSP3 Mac1 [1] (HTRF) was 92.9 µM. Further, the Ki on SARS-CoV-2 NSP3 Mac1 [1] (setting [4]) was 80.8 µM. Also, the values for the 1-BDC on SARS-CoV-2 NSP3 Mac1 [2] (setting [8]) and on SARS-CoV-2 NSP3 Mac1 [2] (setting [13]) were 0.08 and 0.15, respectively. For the same molecule, the “1-BDC (PanDDA)” value on SARS-CoV-2 NSP3 Mac1 [2] (setting [5]) stood at 0.08. The “PanDDA hit?” value on SARS-CoV-2 NSP3 Mac1 [2] (setting [11]) and at SARS-CoV-2 NSP3 Mac1 [2] (setting [14]) was “TRUE” throughout. Also, at SARS-CoV-2 NSP3 Mac1 [2] (setting [12]), the “Modeled?” value was “TRUE”. This molecule had a Refined occupancy at SARS-CoV-2 NSP3 Mac1 [2] (crystal soaking of Mac1) of 16. Further, the “HIT*” value at SARS-CoV-2 NSP3 Mac1 [2] (setting [6]) was “Y”.
Turning to `O=C(O)C1CN(c2ncnc3[nH]c4cc(F)ccc4c23)CCC12CCC2` (stereo not shown) [LL123_0029], the IC50 on SARS-CoV-2 NSP3 Mac1 [1] (setting [7]) worked out at 16 µM; on SARS-CoV-2 NSP3 Mac1 [1] (HTRF), 15.9 µM. For the same molecule, the Ki at SARS-CoV-2 NSP3 Mac1 [1] (setting [4]) was 13.8 µM. For the same molecule, the 1-BDC at SARS-CoV-2 NSP3 Mac1 [2] (setting [13]) turned out to be 0.11. At SARS-CoV-2 NSP3 Mac1 [2] (setting [5]), the “1-BDC (PanDDA)” value was found to be 0.11. For the same molecule, the “PanDDA hit?” value at SARS-CoV-2 NSP3 Mac1 [2] (setting [14]) is listed as “TRUE”. Besides, at SARS-CoV-2 NSP3 Mac1 [2] (ligand modeled in structure, compound stock 100 mM, Echo dispense volume 80 nl), the “Modeled?” value is given as “TRUE”. On SARS-CoV-2 NSP3 Mac1 [2] (crystal soaking of Mac1), this molecule showed a Refined occupancy of 22. The “HIT*” value on SARS-CoV-2 NSP3 Mac1 [2] (setting [6]) is listed as “Y”.
